In article PMC8151276, “An Integrated Approach toward NanoBRET Tracers for Analysis of GPCR Ligand Engagement” (Molecules, 2021):
Values belong to the compound of their own block, whether it stands above or below them.

Columns and labels:
Assay type in all cases: binding
AGTR2 = target: T1, AGTR2 (Homo sapiens, UniProt P50052); test: NanoBRET screen HiBiT-AGTR2 in HEK293
T1 construct: purchased Promega (in-house HiBiT-GPCR construct library, NanoBRET)
T1 sequence (P50052 1-363): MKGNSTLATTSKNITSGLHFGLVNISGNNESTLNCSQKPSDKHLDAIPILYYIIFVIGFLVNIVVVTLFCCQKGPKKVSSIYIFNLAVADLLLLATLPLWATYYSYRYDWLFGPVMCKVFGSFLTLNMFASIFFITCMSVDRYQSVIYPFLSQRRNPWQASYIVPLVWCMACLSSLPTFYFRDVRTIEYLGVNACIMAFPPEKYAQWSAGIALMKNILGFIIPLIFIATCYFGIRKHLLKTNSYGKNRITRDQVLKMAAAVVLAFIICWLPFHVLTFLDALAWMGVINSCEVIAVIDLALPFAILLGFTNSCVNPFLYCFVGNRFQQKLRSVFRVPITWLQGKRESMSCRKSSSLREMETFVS
Procedure: (§1) Each tracer candidate was screened across the entire library of HiBiT-GPCR constructs using NanoBRET as the detection modality. As depicted in Figure 4A, the specificity of interactions was evaluated through decrease in BRET due to competitive displacement of a bound tracer by excess parental compound. Each tracer was analyzed for binding to each HiBiT-GPCR fusion in the absence and in the presence of competing parental compound. Briefly, HEK293 cells were transfected with HiBiT-GPCR constructs diluted into promoterless DNA to reduce expression and maximize translocation to the cell surface. Each tracer candidate was then screened at concentrations of 1 μM and 0.1 μM across cells expressing these fusions. Cells were treated for 1.5 h with tracer either alone or in the presence of 20 μM competing parental compound (i.e., control). BRET was measured upon addition of purified LgBiT and subsequent complementation with HiBiT genetically fused to a GPCR. The specificity of interactions was assessed through a decrease in BRET signal due to competitive displacement of the bound tracer. To further gauge the robustness of these interactions, the fold response over the control (i.e., BRETtracer/BRETcontrol) was calculated. We chose a 1.5-fold response, which translates to ≥7-fold signal over noise as the minimal threshold required to score an interaction as positive. […]. Below we highlight the screening results obtained for our exemplary fluorescent tracers based on Clozapine, Amitriptyline and AZD1283.
(§2) HiBiT-GPCR DNA constructs were diluted in 10 mM Tris pH 8 to a final concentration of 0.01 μg/μL, arrayed in 96-well plates and stored at −20 °C. For transfection, HEK293 cells were suspended in Opti-MEM (without phenol red) supplemented with 2% fetal bovine serum (Seradigm) and 100 units/mL penicillin–streptomycin (Gibco) at a final concentration of 220,000 cells/mL and dispensed into white 96-well plates at 90 μL/well. Subsequent transfections and screens were carried using an Agilent Bravo Automated Liquid Handling Platform. First, the 96-well HiBiT DNA arrays were diluted 25-fold in Opti-MEM (without serum or phenol red) to a final concentration of 0.0004 μg/μL and 20 μL of the diluted DNAs were transferred into new 96-well plates. Next, promoterless carrier DNA (1 μg/μL) was diluted 25-fold (0.04 μg/μL) and then dispensed into the diluted arrays at 20 μL/well. Following brief mixing, Viafect transfection reagent (Promega) diluted 16-fold into Opti-MEM was dispensed into the plates at 40 μL/well. After mixing by pipetting, plates were incubated for 10 min on the pipetting station deck. The DNA-transfection reagent complexes were then added to plates containing cells. To facilitate the screen, 10 μL of DNA-transfection reagent complexes were added in duplicates to the top 4 and bottom 4 rows, resulting in two identical 48-well arrays per plate. Plates with transfected cells were incubated for 18–20 h at 37 °C/5% CO2. A screen of each tracer across the entire library using two different concentrations requires duplicate plates of transfected cells. Depending on the number of tracers being screened, transfections can be scaled up using the same ratios. The next day, for each tracer, four 20× screening solutions in tracer dilution buffer (Promega) were prepared: two duplicates at final concentration of 20 μM and two duplicates at a final concentration of 2 μM. A competing unmodified compound was added to one of each duplicate at a final concentration of 400 μM. The four resulting solutions were diluted 4-fold in Opti-MEM without serum or phenol red to generate 5× solutions (5 µM and 0.5 µM tracer +/− 100 μM competing compound). To screen the library, a BioTek MultiFlo FX liquid dispenser was used to dispense 22.5 µL of tracer solution to the top 4 rows and 22.5 µL tracer + competing compound solution to the 4 bottom rows. Plates were briefly mixed on an orbital shaker and incubated for 1.5 h at room temperature. […]

CXCR1 = target: T2, CXCR1 (Homo sapiens, UniProt P25024); test: NanoBRET screen HiBiT-CXCR1 in HEK293
T2 construct: purchased Promega (in-house HiBiT-GPCR construct library, NanoBRET)
T2 sequence (P25024 1-350): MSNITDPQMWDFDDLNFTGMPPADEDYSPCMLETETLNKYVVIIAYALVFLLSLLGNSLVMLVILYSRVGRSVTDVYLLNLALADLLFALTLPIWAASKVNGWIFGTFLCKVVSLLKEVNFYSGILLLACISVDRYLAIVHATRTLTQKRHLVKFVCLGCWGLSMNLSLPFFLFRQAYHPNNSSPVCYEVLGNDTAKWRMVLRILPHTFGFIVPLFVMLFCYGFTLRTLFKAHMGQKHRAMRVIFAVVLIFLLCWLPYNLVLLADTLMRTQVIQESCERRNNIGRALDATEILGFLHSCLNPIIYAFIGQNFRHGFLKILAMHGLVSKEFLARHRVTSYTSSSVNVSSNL
Procedure: as §1, §2

LTB4R = target: T3, LTB4R (Homo sapiens, UniProt Q15722); test: NanoBRET screen HiBiT-LTB4R in HEK293
T3 construct: purchased Promega (in-house HiBiT-GPCR construct library, NanoBRET)
Procedure: as §1, §2

P2RY4 = target: T4, P2RY4 (Homo sapiens, UniProt P51582); test: NanoBRET screen HiBiT-P2RY4 in HEK293
T4 construct: purchased Promega (in-house HiBiT-GPCR construct library, NanoBRET)
Procedure: as §1, §2

GALR3 = target: T5, GALR3 (Homo sapiens, UniProt O60755); test: NanoBRET screen HiBiT-GALR3 in HEK293
T5 construct: purchased Promega (in-house HiBiT-GPCR construct library, NanoBRET)
T5 sequence (O60755 1-368): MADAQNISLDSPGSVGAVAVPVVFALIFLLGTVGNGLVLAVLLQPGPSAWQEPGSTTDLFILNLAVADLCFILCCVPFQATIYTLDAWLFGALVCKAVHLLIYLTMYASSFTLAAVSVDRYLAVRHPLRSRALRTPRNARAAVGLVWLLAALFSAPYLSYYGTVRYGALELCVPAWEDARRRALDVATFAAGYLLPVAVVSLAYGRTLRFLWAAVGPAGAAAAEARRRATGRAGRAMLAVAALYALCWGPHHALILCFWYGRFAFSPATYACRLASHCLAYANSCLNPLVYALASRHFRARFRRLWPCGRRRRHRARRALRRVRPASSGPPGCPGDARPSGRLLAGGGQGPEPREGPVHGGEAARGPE
Procedure: as §1, §2

SSTR1 = target: T6, SSTR1 (Homo sapiens, UniProt P30872); test: NanoBRET screen HiBiT-SSTR1 in HEK293
T6 construct: purchased Promega (in-house HiBiT-GPCR construct library, NanoBRET)
Procedure: as §1, §2

T4 sequence (P51582 whole entry): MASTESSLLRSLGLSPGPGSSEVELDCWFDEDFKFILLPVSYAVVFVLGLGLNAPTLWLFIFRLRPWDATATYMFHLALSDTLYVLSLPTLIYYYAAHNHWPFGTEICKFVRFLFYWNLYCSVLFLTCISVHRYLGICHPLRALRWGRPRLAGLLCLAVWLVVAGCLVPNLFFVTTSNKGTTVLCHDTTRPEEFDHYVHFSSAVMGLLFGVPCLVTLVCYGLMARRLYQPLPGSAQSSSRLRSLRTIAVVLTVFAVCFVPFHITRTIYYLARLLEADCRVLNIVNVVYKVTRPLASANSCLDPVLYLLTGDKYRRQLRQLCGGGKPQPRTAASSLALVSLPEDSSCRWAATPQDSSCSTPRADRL
T3 sequence (Q15722 whole entry): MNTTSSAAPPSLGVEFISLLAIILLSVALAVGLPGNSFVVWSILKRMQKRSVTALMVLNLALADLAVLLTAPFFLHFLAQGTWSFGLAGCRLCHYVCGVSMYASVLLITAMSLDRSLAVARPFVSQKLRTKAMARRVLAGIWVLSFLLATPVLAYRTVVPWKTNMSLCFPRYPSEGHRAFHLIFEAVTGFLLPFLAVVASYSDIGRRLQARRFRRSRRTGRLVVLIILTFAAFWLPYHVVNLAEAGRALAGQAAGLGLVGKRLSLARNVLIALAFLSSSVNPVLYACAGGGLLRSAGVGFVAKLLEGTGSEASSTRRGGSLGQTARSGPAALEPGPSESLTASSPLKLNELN
T6 sequence (P30872 whole entry): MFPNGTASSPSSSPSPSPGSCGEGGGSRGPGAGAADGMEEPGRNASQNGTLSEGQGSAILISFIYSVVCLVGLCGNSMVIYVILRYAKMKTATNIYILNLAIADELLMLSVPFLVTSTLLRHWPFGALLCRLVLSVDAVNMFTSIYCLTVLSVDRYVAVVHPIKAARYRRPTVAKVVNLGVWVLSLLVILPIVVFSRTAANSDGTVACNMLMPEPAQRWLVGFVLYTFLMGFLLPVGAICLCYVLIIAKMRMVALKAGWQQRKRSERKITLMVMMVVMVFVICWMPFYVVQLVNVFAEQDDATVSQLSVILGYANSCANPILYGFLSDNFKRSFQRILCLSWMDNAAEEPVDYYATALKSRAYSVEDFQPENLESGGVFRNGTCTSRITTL

SMILES: Cc1cc2c(s1)Nc1ccccc1N=C2N1CCN(CCCNC(=O)CCOCCOCCOCCOCCNC(=O)CCc2ccc3n2[B-](F)(F)[N+]2=C(c4ccc[nH]4)C=CC2=C3)CC1 [Olanzapine-a-2-NB590]
NanoBRET Fold Response (AGTR2; AGTR2, tracer 0.1μM): 1.12
NanoBRET Fold Response (AGTR2; AGTR2, tracer 1μM): 0.87
NanoBRET Fold Response (CXCR1; CXCR1, tracer 0.1μM): 1.00
NanoBRET Fold Response (CXCR1; CXCR1, tracer 1μM): 0.99
NanoBRET Fold Response (LTB4R; LTB4R, tracer 0.1μM): 1.02
NanoBRET Fold Response (LTB4R; LTB4R, tracer 1μM): 1.03
NanoBRET Fold Response (P2RY4; P2RY4, tracer 0.1μM): 1.07
NanoBRET Fold Response (P2RY4; P2RY4, tracer 1μM): 0.95
NanoBRET Fold Response (GALR3; GALR3, tracer 0.1μM): 1.12
NanoBRET Fold Response (GALR3; GALR3, tracer 1μM): 0.87
NanoBRET Fold Response (SSTR1; SSTR1, tracer 0.1μM): 1.08
NanoBRET Fold Response (SSTR1; SSTR1, tracer 1μM): 1.16

SMILES: CN1CCN(C2=Nc3cc(Cl)ccc3Nc3ccc(CNC(=O)CCOCCOCCOCCOCCNC(=O)CCc4ccc5n4[B-](F)(F)[N+]4=C(c6ccc[nH]6)C=CC4=C5)cc32)CC1 [Clozapine-b-2-NB590]
NanoBRET Fold Response (AGTR2; AGTR2, 0.1μM tracer): 1.03
NanoBRET Fold Response (AGTR2; AGTR2, 1μM tracer): 0.95
NanoBRET Fold Response (CXCR1; CXCR1, 0.1μM tracer): 1.00
NanoBRET Fold Response (CXCR1; CXCR1, 1μM tracer): 0.99
NanoBRET Fold Response (LTB4R; LTB4R, 0.1μM tracer): 1.04
NanoBRET Fold Response (LTB4R; LTB4R, 1μM tracer): 1.04
NanoBRET Fold Response (P2RY4; P2RY4, 0.1μM tracer): 0.97
NanoBRET Fold Response (P2RY4; P2RY4, 1μM tracer): 0.97
NanoBRET Fold Response (GALR3; GALR3, 0.1μM tracer): 0.93
NanoBRET Fold Response (GALR3; GALR3, 1μM tracer): 0.91
NanoBRET Fold Response (SSTR1; SSTR1, 0.1μM tracer): 1.00
NanoBRET Fold Response (SSTR1; SSTR1, 1μM tracer): 1.09

NanoBRET Fold Response (AGTR2; 0.1μM tracer): 1.23
NanoBRET Fold Response (AGTR2; 1μM tracer): 0.87
NanoBRET Fold Response (CXCR1; 0.1μM tracer): 0.88
NanoBRET Fold Response (CXCR1; 1μM tracer): 1.15
NanoBRET Fold Response (LTB4R; 0.1μM tracer): 0.97
NanoBRET Fold Response (LTB4R; 1μM tracer): 0.97
NanoBRET Fold Response (P2RY4; 0.1μM tracer): 1.10
NanoBRET Fold Response (P2RY4; 1μM tracer): 1.10
NanoBRET Fold Response (GALR3; 0.1μM tracer): 0.81
NanoBRET Fold Response (GALR3; 1μM tracer): 1.05
NanoBRET Fold Response (SSTR1; 0.1μM tracer): 1.08
NanoBRET Fold Response (SSTR1; 1μM tracer): 1.03
SMILES: COc1ccc2c(n1)c(CCNC(C)=O)cn2CCNC(=O)CCc1ccc2n1[B-](F)(F)[N+]1=C(c3ccc[nH]3)C=CC1=C2 [Azamelatonin-1-NB590]

SMILES: O=C(CCc1ccc2n1[B-](F)(F)[N+]1=C(c3ccc[nH]3)C=CC1=C2)NCc1ccc(C(=O)NCCOCCOCCNCC(O)COc2cccc3ccccc23)cc1 (stereo not drawn) [Propranolol-3-NB590]
NanoBRET Fold Response (AGTR2; AGTR2, 0.1μM): 0.95
NanoBRET Fold Response (AGTR2; AGTR2, 1μM): 0.99
NanoBRET Fold Response (CXCR1; CXCR1, 0.1μM): 1.02
NanoBRET Fold Response (CXCR1; CXCR1, 1μM): 1.00
NanoBRET Fold Response (LTB4R; LTB4R, 0.1μM): 0.97
NanoBRET Fold Response (LTB4R; LTB4R, 1μM): 1.02
NanoBRET Fold Response (P2RY4; P2RY4, 0.1μM): 1.03
NanoBRET Fold Response (P2RY4; P2RY4, 1μM): 0.92
NanoBRET Fold Response (GALR3; GALR3, 0.1μM): 1.05
NanoBRET Fold Response (GALR3; GALR3, 1μM): 0.91
NanoBRET Fold Response (SSTR1; SSTR1, 0.1μM): 1.04
NanoBRET Fold Response (SSTR1; SSTR1, 1μM): 1.02

NanoBRET Fold Response (AGTR2; AGTR2, 0.1μM tracer): 1.02
NanoBRET Fold Response (AGTR2; AGTR2, 1μM tracer): 1.03
NanoBRET Fold Response (CXCR1; CXCR1, 0.1μM tracer): 0.99
NanoBRET Fold Response (CXCR1; CXCR1, 1μM tracer): 0.94
NanoBRET Fold Response (LTB4R; LTB4R, 0.1μM tracer): 1.05
NanoBRET Fold Response (LTB4R; LTB4R, 1μM tracer): 0.94
NanoBRET Fold Response (P2RY4; P2RY4, 0.1μM tracer): 1.09
NanoBRET Fold Response (P2RY4; P2RY4, 1μM tracer): 0.96
NanoBRET Fold Response (GALR3; GALR3, 0.1μM tracer): 1.02
NanoBRET Fold Response (GALR3; GALR3, 1μM tracer): 1.13
NanoBRET Fold Response (SSTR1; SSTR1, 0.1μM tracer): 0.96
NanoBRET Fold Response (SSTR1; SSTR1, 1μM tracer): 1.00
SMILES: O=C(CCOCCOCCOCCOCCNC(=O)CCc1ccc2n1[B-](F)(F)[N+]1=C(c3ccc[nH]3)C=CC1=C2)NCCCN1CCN(C2=Nc3cc(Cl)ccc3Nc3ccccc32)CC1 [Clozapine-a-2-NB590]
